Key:
[1] = test system: gastric emptying and intestinal motility; test: Charcoal transit model of postoperative ileus after abdominal surgery with cecal manipulation; type: in vivo, rat; details: charcoal distance 4 h after oral meal, percent of full intestinal length, male Sprague Dawley rats
Excerpt: The charcoal transit model is an accetable and established model to study the effects of abdominal surgery on intestinal motility. We followed the procedure as described by De Winter et al. (1997) (Reference: Effect of adrenergic and nitrergic blockade on experimental ileus in rats. British Journal of Pharmacology (1997) 120, 464-468. Benedicte Y. De Winter, Guy E. Boeckxstaens, Joris G. De Man, Tom G. Moreels, Arnold G. Herman & Paul A. Pelckmans). The model simulates the abdominal procedure in human and tests for gastric emptying and intestinal motility by the transfer of a charcoal meal fed to the animals.
Male Sprague Dawley rats, weighing 250-275 g (8 in group) were anesthetized with a xylazine/ketamine cocktail, injected IM, the abdomen was shaved and disinfected with alcohol and Betadyne. A 2.5 cm incision was made from the xyphoid process caudally. The intestinal contents was exteriorized onto wet gauze. The cecum was manipulated gently for 1 minute. The abdominal contents were replaced, the treatment was applied and the body wall closed with 4-0 PDS for the fascia and muscle layers. The skin was closed with wound clips. Treatment groups included two control groups, surgery (incision only) and naïve, and […], high and low dose of Tranilast gel, high and low dose of Tranilast ORC, as well as gel alone and ORC alone. 8 rats were included in each group with a total of 64 rats. The high and low dose Tranilast gel and gel alone treatments were prepared as described in Example 1. The high and low dose Tranilast ORC and ORC alone treatments were prepared as described in Example 2.
The rats were treated with an oral solution of charcoal (10%) in acacia gum (2%). Four hours following oral administration rats were euthanized with Euthasole. The intestines were exteriorized and the distance traveled by the charcoal meal was measured as well as the full length of the intestines (from the pylorus through the anus). Results are expressed as percent of distance traveled relative to the full length of the intestines.

[2] = test system: adhesions; details: local delivery in gel (NaCMC) formulations at the surgical site; cited from earlier work

COc1ccc(/C=C/C(=O)Nc2ccccc2C(=O)O)cc1OC [Tranilast]
% GI Transfer ([1]; Gel preparation (3% Na-CMC), Tranilast high dose 18.0 mg applied locally): 93.04%
% GI Transfer ([1]; Gel preparation (3% Na-CMC), Tranilast low dose 1.8 mg applied locally): 90.68%
% GI Transfer ([1]; ORC preparation (INTERCEED mesh), Tranilast high dose 18.0 mg applied locally): 62.18%
% GI Transfer ([1]; ORC preparation (INTERCEED mesh), Tranilast low dose 1.8 mg applied locally): 46.11%
Effects on wound healing at the surgical sites [2]: no obvious effects on wound healing
